Test results: ChEMBL document CHEMBL3774345, “Synthesis of new diarylamides with pyrimidinyl pyridine scaffold and evaluation of their anti-proliferative effect on cancer cell lines” (Bioorg Med Chem Lett, 2016)

Tests used:
Type in all cases: functional
NCI-H322M = test: Cytotoxicity against human NCI-H322M cells assessed as cell growth at 10 uM after 24 hrs by SRB assay; conditions: read-out: Activity
NCI-H522 = test: Cytotoxicity against human NCI-H522 cells assessed as cell growth at 10 uM after 24 hrs by SRB assay; conditions: NCI-H522, 24 h, read-out: Activity
[1] = Cytotoxicity against human COLO205 cells assessed as cell growth at 10 uM after 24 hrs by SRB assay; conditions: COLO 205, 24 h, read-out: Activity
[2] = Cytotoxicity against human HCC2998 cells assessed as cell growth at 10 uM after 24 hrs by SRB assay; conditions: HCC 2998, 24 h, read-out: Activity
HT-29 = test: Cytotoxicity against human HT-29 cells assessed as cell growth at 10 uM after 24 hrs by SRB assay; conditions: HT-29, 24 h, read-out: Activity
KM12 = test: Cytotoxicity against human KM12 cells assessed as cell growth at 10 uM after 24 hrs by SRB assay; conditions: KM12, 24 h, read-out: Activity
[3] = Cytotoxicity against human SF268 cells assessed as cell growth at 10 uM after 24 hrs by SRB assay; conditions: SF-268, 24 h, read-out: Activity
[4] = Cytotoxicity against human SF295 cells assessed as cell growth at 10 uM after 24 hrs by SRB assay; conditions: SF-295, 24 h, read-out: Activity
[5] = Cytotoxicity against human SF539 cells assessed as cell growth at 10 uM after 24 hrs by SRB assay; conditions: SF-539, 24 h, read-out: Activity
[6] = Cytotoxicity against human SNB19 cells assessed as cell growth at 10 uM after 24 hrs by SRB assay; conditions: SNB-19, 24 h, read-out: Activity
U-251 = test: Cytotoxicity against human U251 cells assessed as cell growth at 10 uM after 24 hrs by SRB assay; conditions: U-251, 24 h, read-out: Activity
[7] = Cytotoxicity against human LOXIMVI cells assessed as cell growth at 10 uM after 24 hrs by SRB assay; conditions: LOX IMVI, read-out: Activity
M14 = test: Cytotoxicity against human M14 cells assessed as cell growth at 10 uM after 24 hrs by SRB assay; conditions: M14, 24 h, read-out: Activity
SK-MEL-28 = test: Cytotoxicity against human SK-MEL-28 cells assessed as cell growth at 10 uM after 24 hrs by SRB assay; conditions: SK-MEL-28, 24 h, read-out: Activity
SK-MEL-5 = test: Cytotoxicity against human SK-MEL-5 cells assessed as cell growth at 10 uM after 24 hrs by SRB assay; conditions: SK-MEL-5, 24 h, read-out: Activity
[8] = Cytotoxicity against human UACC257 cells assessed as cell growth at 10 uM after 24 hrs by SRB assay; conditions: UACC-257, 24 h, read-out: Activity
[9] = Cytotoxicity against human UACC62 cells assessed as cell growth at 10 uM after 24 hrs by SRB assay; conditions: UACC-62, 24 h, read-out: Activity
[10] = Cytotoxicity against human IGROV1 cells assessed as cell growth at 10 uM after 24 hrs by SRB assay; conditions: IGROV-1, 24 h, read-out: Activity
[11] = Cytotoxicity against human OVCAR3 cells assessed as cell growth at 10 uM after 24 hrs by SRB assay; conditions: OVCAR-3, 24 h, read-out: Activity
[12] = Cytotoxicity against human OVCAR4 cells assessed as cell growth at 10 uM after 24 hrs by SRB assay; conditions: OVCAR-4, 24 h, read-out: Activity
[13] = Cytotoxicity against human OVCAR8 cells assessed as cell growth at 10 uM after 24 hrs by SRB assay; conditions: OVCAR-8, 24 h, read-out: Activity
[14] = Cytotoxicity against human NCI-ADR-RES cells assessed as cell growth at 10 uM after 24 hrs by SRB assay; conditions: read-out: Activity
[15] = Cytotoxicity against human SKOV3 cells assessed as cell growth at 10 uM after 24 hrs by SRB assay; conditions: SK-OV-3, 24 h, read-out: Activity
786-0 = test: Cytotoxicity against human 786-0 cells assessed as cell growth at 10 uM after 24 hrs by SRB assay; conditions: 786-0, 24 h, read-out: Activity
A498 = test: Cytotoxicity against human A498 cells assessed as cell growth at 10 uM after 24 hrs by SRB assay; conditions: A498, 24 h, read-out: Activity
[16] = Cytotoxicity against human Caki1 cells assessed as cell growth at 10 uM after 24 hrs by SRB assay; conditions: CAKI-1, 24 h, read-out: Activity
SN12C = test: Cytotoxicity against human SN12C cells assessed as cell growth at 10 uM after 24 hrs by SRB assay; conditions: read-out: Activity
[17] = Cytotoxicity against human DU145 cells assessed as cell growth at 10 uM after 24 hrs by SRB assay; conditions: DU-145, 24 h, read-out: Activity
MCF7 = test: Cytotoxicity against human MCF7 cells assessed as cell growth at 10 uM after 24 hrs by SRB assay; conditions: MCF7, 24 h, read-out: Activity
MDA-MB-231 = test: Cytotoxicity against human MDA-MB-231 cells assessed as cell growth at 10 uM after 24 hrs by SRB assay; conditions: MDA-MB-231, 24 h, read-out: Activity
T47D = test: Cytotoxicity against human T47D cells assessed as cell growth at 10 uM after 24 hrs by SRB assay; conditions: read-out: Activity
MDA-MB-468 = test: Cytotoxicity against human MDA-MB-468 cells assessed as cell growth at 10 uM after 24 hrs by SRB assay; conditions: MDA-MB-468, 24 h, read-out: Activity
[18] = Cytotoxicity against human NCI60 cells assessed as growth inhibition at 10 uM after 24 hrs by SRB assay; conditions: NCI60, 24 h
CCRF-CEM = test: Cytotoxicity against human CCRF-CEM cells assessed as cell growth at 10 uM after 24 hrs by SRB assay; conditions: read-out: Activity
[19] = Cytotoxicity against human HL-60(TB) cells assessed as cell growth at 10 uM after 24 hrs by SRB assay; conditions: HL-60, 24 h, read-out: Activity
[20] = Cytotoxicity against human RPMI8226 cells assessed as cell growth at 10 uM after 24 hrs by SRB assay; conditions: RPMI-8226, 24 h, read-out: Activity
SR = test: Cytotoxicity against human SR cells assessed as cell growth at 10 uM after 24 hrs by SRB assay; conditions: read-out: Activity
[21] = Cytotoxicity against human HOP62 cells assessed as cell growth at 10 uM after 24 hrs by SRB assay; conditions: HOP-62, 24 h, read-out: Activity
[22] = Cytotoxicity against human HOP92 cells assessed as cell growth at 10 uM after 24 hrs by SRB assay; conditions: HOP-92, 24 h, read-out: Activity

COCCCNc1nc(NC(=O)c2cc(OC)cc(OC)c2)cc(-c2cccnc2)n1
growth at 10 µM (NCI-H322M): 92.8%
growth at 10 µM (NCI-H522): 76.5%
growth at 10 µM [1]: 109%
growth at 10 µM [2]: 110%
growth at 10 µM (HT-29): 95.5%
growth at 10 µM (KM12): 103%
growth at 10 µM [3]: 100%
growth at 10 µM [4]: 100%
growth at 10 µM [5]: 88.9%
growth at 10 µM [6]: 98.3%
growth at 10 µM (U-251): 96.8%
growth at 10 µM [7]: 94.5%
growth at 10 µM (M14): 107%
growth at 10 µM (SK-MEL-28): 105%
growth at 10 µM (SK-MEL-5): 72.4%
growth at 10 µM [8]: 106%
growth at 10 µM [9]: 111%
growth at 10 µM [10]: 102%
growth at 10 µM [11]: 113%
growth at 10 µM [12]: 108%
growth at 10 µM [13]: 79.3%
growth at 10 µM [14]: 83.5%
growth at 10 µM [15]: 105%
growth at 10 µM (786-0): 83.3%
growth at 10 µM (A498): 67.7%
growth at 10 µM [16]: 99.4%
growth at 10 µM (SN12C): 95.3%
growth at 10 µM [17]: 101%
growth at 10 µM (MCF7): 97.8%
growth at 10 µM (MDA-MB-231): 69.1%
growth at 10 µM (T47D): 63.8%
growth at 10 µM (MDA-MB-468): 94.8%
inhibition at 10 µM [18]: 8.06%
growth at 10 µM (CCRF-CEM): 91.7%
growth at 10 µM [19]: 90.2%
growth at 10 µM [20]: 69.3%
growth at 10 µM (SR): 80.6%
growth at 10 µM [21]: 91.3%
growth at 10 µM [22]: 52.6%
